# Measured values published in patent US20100317607A1, “USE OF COMPOUNDS FOR PREPARING ANTI-TUBERCULOSIS AGENTS” (INFECTIOUS DISEASE RESEARCH INSTITUTE, priority 2007, published 2010).
# Structures can show the parent of a compound that is named as a salt.
# Tested on: H37Rv strain of M. tuberculosis
# Experiment: Alamar Blue Susceptibility Test (MABA)
# Format: cell-based
# Conditions: H37Rv strain of M. tuberculosis; Alamar Blue
row,Structure (SMILES),"MABA (TB growth inhibition, colourimetric assay)"
1,"Nc1nc(N2CCCCC2)nc2ccccc12 [compound 1, 2-(Piperidin-1-yl)quinazolin-4-amine, reference compound]",−

# Same assay, conditions: Mycobacterium tuberculosis, H37RV, read-out: MABA (TB growth inhibition, colourimetric assay)
row,Structure (SMILES),MIC
1,"Clc1ccc(CNc2nc(N3CCCCC3)nc3ccccc23)cn1 [Compound 194, N-((6-Chloropyridin-3-yl)methyl)-2-(piperidin-1-yl)quinazolin-4-amine hydrochloride]",10 to 50 µM

# Same assay, conditions: Mycobacterium tuberculosis; H37Rv strain of M. tuberculosis; Alamar Blue; read-out: MABA (TB growth inhibition, colourimetric assay)
row,Structure (SMILES),MIC
1,"c1ccc(CNc2nc(N3CCCCC3)nc3ccccc23)cc1 [Compound 4, N-Benzyl-2-(piperidin-1-yl)quinazolin-4-amine]",< 10 µM
2,"c1ccc(CNc2nc(N3CCOCC3)nc3ccccc23)cc1 [Compound 5, N-Benzyl-2-morpholinoquinazolin-4-amine]",50 to 128 µM
3,"CN1CCN(c2nc(NCc3ccccc3)c3ccccc3n2)CC1 [Compound 6, N-Benzyl-2-(4-methylpiperazin-1-yl)quinazolin-4-amine hydrochloride]",50 to 128 µM
4,"CC(Nc1nc(N2CCNCC2)nc2ccccc12)c1ccccc1 (stereo not drawn) [Compound 8, N-(1-Phenylethyl)-2-(piperazin-1-yl)quinazolin-4-amine]",50 to 128 µM
5,"CC(Nc1nc(N2CCOCC2)nc2ccccc12)c1ccccc1 (stereo not drawn) [Compound 9, 2-Morpholino-N-(1-phenylethyl)quinazolin-4-amine]",50 to 128 µM
6,"CC(Nc1nc(N2CCN(S(C)(=O)=O)CC2)nc2ccccc12)c1ccccc1 (stereo not drawn) [Compound 10, 2-(4-(Methylsulfonyl)piperazin-1-yl)-N-(1-phenylethyl)quinazolin-4-amine]",50 to 128 µM
7,"Fc1ccc(CNc2nc(N3CCCC3)nc3ncccc23)cc1 [Compound 173, N-(4-Fluorobenzyl)-2-(pyrrolidin-1-yl)pyrido[2,3-d]pyrimidin-4-amine]",10 to 50 µM
8,"Fc1ccc(CNc2nc(N3CCCCC3)nc3ncccc23)cc1 [Compound 174, N-(4-Fluorobenzyl)-2-(piperidin-1-yl)pyrido[2,3-d]pyrimidin-4-amine]",10 to 50 µM
9,"COC(=O)[C@@H](Nc1nc(N2CCCCC2)nc2ccccc12)c1ccccc1 [Compound 175, (S)-Methyl 2-phenyl-2-(2-(piperidin-1-yl)quinazolin-4-ylamino)acetate]",10 to 50 µM
10,"COC(=O)[C@H](Cc1ccccc1)Nc1nc(N2CCCCC2)nc2ccccc12 [Compound 176, (S)-Methyl 3-phenyl-2-(2-(piperidin-1-yl)quinazolin-4-ylamino)propanoate]",50 to 128 µM
11,"OC[C@@H]1CCCN1c1nc(NCc2ccccc2)c2ccccc2n1 [Compound 177, (S)-(1-(4-(Benzylamino)quinazolin-2-yl)pyrrolidin-2-yl)methanol]",50 to 128 µM
12,"COC[C@@H]1CCCN1c1nc(NCc2ccccc2)c2ccccc2n1 [Compound 178, (S)—N-Benzyl-2-(2-(methoxymethyl)pyrrolidin-1-yl)quinazolin-4-amine]",50 to 128 µM
13,"Fc1ccc(CNc2nc(N3Cc4ccccc4C3)nc3ccccc23)cc1 [Compound 179, N-(4-Fluorobenzyl)-2-(isoindolin-2-yl)quinazolin-4-amine hydrochloride]",< 10 µM
14,"COC(=O)[C@@H]1CCCN1c1nc(NCc2ccccc2)c2ccccc2n1 [Compound 180, (S)-Methyl 1-(4-(benzylamino)quinazolin-2-yl)pyrrolidine-2-carboxylate]",50 to 128 µM
15,"COc1cc2c(cc1OC)CN(c1nc(NCc3ccccc3)c3ccccc3n1)CC2 [Compound 181, N-Benzyl-2-(6,7-dimethoxy-3,4-dihydroisoquinolin-2(1H)-yl)quinazolin-4-amine]",10 to 50 µM
16,"Fc1ccc(CNc2nc(N3CCCC3)nc3cccc(Cl)c23)cc1 [Compound 182, 5-Chloro-N-(4-fluorobenzyl)-2-(pyrrolidin-1-yl)quinazolin-4-amine]",10 to 50 µM
17,"Fc1ccc(CNc2nc(N3CCCCC3)nc3cccc(Cl)c23)cc1 [Compound 183, 5-Chloro-N-(4-fluorobenzyl)-2-(piperidin-1-yl)quinazolin-4-amine]",10 to 50 µM
18,"CC(C)(C)OC(=O)N1CCc2c(nc(N3CCCCC3)nc2NCc2ccc(F)cc2)C1 [Compound 184, tert-Butyl 4-(4-fluorobenzylamino)-2-(piperidin-1-yl)-5,6-dihydropyrido[3,4-d]pyrimidine-7(8H)-carboxylate]",50 to 128 µM
19,"Fc1ccc(Nc2nc(N3CCCC3)nc3nccnc23)cc1 [Compound 185, N-(4-Fluorophenyl)-2-(pyrrolidin-1-yl)pteridin-4-amine]",50 to 128 µM
20,"c1ccc2c(c1)CCN(c1nc(N3CCCC3)nc3ccccc13)C2 [Compound 186, 4-(3,4-Dihydroisoquinolin-2(1H)-yl)-2-(pyrrolidin-1-yl)quinazoline]",10 to 50 µM
21,"c1csc(CNc2nc(N3CCCC3)nc3ccccc23)c1 [Compound 187, 2-(Pyrrolidin-1-yl)-N-(thiophen-2-ylmethyl)quinazolin-4-amine]",10 to 50 µM
22,"COc1cc2c(cc1OC)CN(c1nc(N3CCCC3)nc3ccccc13)CC2 [Compound 188, 4-(6,7-Dimethoxy-3,4-dihydroisoquinolin-2(1H)-yl)-2-(pyrrolidin-1-yl)quinazoline]",10 to 50 µM

row,Structure (SMILES),MIC
1,"Clc1ccc(CNc2nc(N3CCCCC3)nc3ccccc23)s1 [Compound 189, N-((5-Chlorothiophen-2-yl)methyl)-2-(piperidin-1-yl)quinazolin-4-amine]",< 10 µM
2,"c1ccc2c(NCc3ccoc3)nc(N3CCCCC3)nc2c1 [Compound 190, N-(Furan-3-ylmethyl)-2-(piperidin-1-yl)quinazolin-4-amine]",10 to 50 µM
3,"c1ccc2c(NCc3ccsc3)nc(N3CCCCC3)nc2c1 [Compound 191, 2-(Piperidin-1-yl)-N-(thiophen-3-ylmethyl)quinazolin-4-amine]",10 to 50 µM
4,"COc1cc2c(cc1OC)CN(c1nc(N3CCCCC3)nc3ccccc13)CC2 [Compound 192, 4-(6,7-Dimethoxy-3,4-dihydroisoquinolin-2(1H)-yl)-2-(piperidin-1-yl)quinazoline]",10 to 50 µM
5,"Fc1ccc(CNc2nc(N3CCc4ccc(Br)cc4C3)nc3ccccc23)cc1 [Compound 193, 2-(7-Bromo-3,4-dihydroisoquinolin-2(1H)-yl)-N-(4-fluorobenzyl)quinazolin-4-amine]",10 to 50 µM
6,"c1ccc2c(CNc3nc(N4CCCCC4)nc4ccccc34)ccnc2c1 [Compound 195, 2-(Piperidin-1-yl)-N-(quinolin-4-ylmethyl)quinazolin-4-amine]",10 to 50 µM
7,"FC(F)(F)c1ccc(CNc2nc(N3CCCCC3)nc3ccccc23)cn1 [Compound 196, 2-(Piperidin-1-yl)-N-((6-(trifluoromethyl)pyridin-3-yl)methyl)quinazolin-4-amine hydrochloride]",10 to 50 µM
8,"c1ccc(CNc2nc(N3CCCCCC3)nc3ccccc23)cc1 [Compound 197, 2-(Azepan-1-yl)-N-benzylquinazolin-4-amine]",10 to 50 µM
9,"OC[C@@H]1CCCN1c1nc(NCc2ccc(F)cc2)c2ccccc2n1 [Compound 198, (S)-(1-(4-(4-Fluorobenzylamino)quinazolin-2-yl)pyrrolidin-2-yl)methanol]",50 to 128 µM
10,"COC[C@@H]1CCCN1c1nc(NCc2ccc(F)cc2)c2ccccc2n1 [Compound 199, (S)—N-(4-Fluorobenzyl)-2-(2-(methoxymethyl)pyrrolidin-1-yl)quinazolin-4-amine]",10 to 50 µM
11,"COC(=O)[C@@H]1CCCN1c1nc(NCc2ccc(F)cc2)c2ccccc2n1 [Compound 200, (S)-Methyl 1-(4-(4-fluorobenzylamino)quinazolin-2-yl)pyrrolidine-2-carboxylate]",50 to 128 µM
12,"Fc1ccc(CNc2nc(N3CCN(Cc4ccccc4)CC3)nc3ccccc23)cc1 [Compound 201, 2-(4-Benzylpiperazin-1-yl)-N-(4-fluorobenzyl)quinazolin-4-amine]",10 to 50 µM
13,"O=C(C1CC1)N1CCN(c2nc(NCc3ccc(F)cc3)c3ccccc3n2)CC1 [Compound 202, Cyclopropyl(4-(4-(4-fluorobenzylamino)quinazolin-2-yl)piperazin-1-yl)methanone hydrochloride]",50 to 128 µM
14,"O=C(C1CCCCC1)N1CCN(c2nc(NCc3ccc(F)cc3)c3ccccc3n2)CC1 [Compound 203, Cyclohexyl(4-(4-(4-fluorobenzylamino)quinazolin-2-yl)piperazin-1-yl)methanone]",10 to 50 µM
15,"O=C(c1ccccc1)N1CCN(c2nc(NCc3ccc(F)cc3)c3ccccc3n2)CC1 [Compound 204, (4-(4-(4-Fluorobenzylamino)quinazolin-2-yl)piperazin-1-yl)(phenyl)methanone]",50 to 128 µM
16,"O=C(N1CCCC1)N1CCN(c2nc(NCc3ccc(F)cc3)c3ccccc3n2)CC1 [Compound 205, (4-(4-(4-Fluorobenzylamino)quinazolin-2-yl)piperazin-1-yl)(pyrrolidin-1-yl)methanone hydrochloride]",50 to 128 µM
17,"CCOC(=O)CNc1nc(NCc2ccc(F)cc2)c2ccccc2n1 [Compound 206, Ethyl 2-(4-(4-fluorobenzylamino)quinazolin-2-ylamino)acetate hydrochloride]",50 to 128 µM
18,"COCCNc1nc(NCc2ccc(F)cc2)c2ccccc2n1 [Compound 207, N^4-(4-Fluorobenzyl)-N^2-(2-methoxyethyl)quinazoline-2,4-diamine]",50 to 128 µM
19,"Fc1ccc(CNc2nc(NCC3CCCCC3)nc3ccccc23)cc1 [Compound 208, N^2-(Cyclohexylmethyl)-N^4-(4-fluorobenzyl)quinazoline-2,4-diamine]",10 to 50 µM
20,"Fc1ccc(CNc2nc(NCCN3CCCCC3)nc3ccccc23)cc1 [Compound 209, N^4-(4-Fluorobenzyl)-N^2-(2-(piperidin-1-yl)ethyl)quinazoline-2,4-diamine hydrochloride]",50 to 128 µM
21,"Nc1nc(NCc2ccccc2)c2ccccc2n1 [compound 3, N^4-Benzylquinazoline-2,4-diamine, reference compound]",50 to 128 µM

# Tested on: non replicating phase of M. tuberculosis (H37Rv with a plasmid with an acetimidase promoter driving a luciferase gene)
# Experiment: microbe, parasite or virus in culture
# Format: cell-based
# Conditions: Mycobacterium tuberculosis, non replicating M. tuberculosis H37Rv luciferase strain, read-out: LORA (TB growth inhibition, MIC)
row,Structure (SMILES),MIC
1,"c1ccc(CNc2nc(N3CCCCC3)nc3ccccc23)cc1 [Compound 4, N-Benzyl-2-(piperidin-1-yl)quinazolin-4-amine]",10 to 50 µM
2,"c1ccc(CNc2nc(N3CCOCC3)nc3ccccc23)cc1 [Compound 5, N-Benzyl-2-morpholinoquinazolin-4-amine]",50 to 128 µM
3,"CN1CCN(c2nc(NCc3ccccc3)c3ccccc3n2)CC1 [Compound 6, N-Benzyl-2-(4-methylpiperazin-1-yl)quinazolin-4-amine hydrochloride]",50 to 128 µM
4,"CC(Nc1nc(N2CCNCC2)nc2ccccc12)c1ccccc1 (stereo not drawn) [Compound 8, N-(1-Phenylethyl)-2-(piperazin-1-yl)quinazolin-4-amine]",10 to 50 µM
5,"CC(Nc1nc(N2CCOCC2)nc2ccccc12)c1ccccc1 (stereo not drawn) [Compound 9, 2-Morpholino-N-(1-phenylethyl)quinazolin-4-amine]",50 to 128 µM
6,"CC(Nc1nc(N2CCN(S(C)(=O)=O)CC2)nc2ccccc12)c1ccccc1 (stereo not drawn) [Compound 10, 2-(4-(Methylsulfonyl)piperazin-1-yl)-N-(1-phenylethyl)quinazolin-4-amine]",10 to 50 µM
